Legend:
[1] = biological target: human recombinant GABAA α1β3γ2 receptor (Homo sapiens (Human), UniProt P14867+P18507); test: Functional assay, QPatch automated patch clamp, modulation of GABA-evoked current; type: cell-based; details: tested at 10 μM; GABA 1 μM; HEK293 cells; percentage modulation of peak current
Method: (§1) Human HEK293 cell lines expressing GABAA α1β3γ2 and GABAA α5β3γ2 receptors were used in functional assays using the QPatch automated patch clamp system.
(§2) HEK293 cell lines stably expressing human recombinant GABAA α1β3γ2 receptor subunits (Millipore, CYL3073) or human recombinant GABAA α5β3γ2 receptor subunits (Millipore, CYL3053) were cultured in DMEM supplemented with 10% FBS (Gibco), passed two times per week and plated on Petri dishes previously coated with poly-d-lysine.
(§3) Automated whole-cell patch clamp recordings were made from cells 2-4 days after plating. Cells were detached using trypsin/EDTA (Sigma) treatment (2 minutes in 0.25% trypsin at 37° C.), then, after centrifugation (125G, 3 min, 2×), resuspended in a serum-free based media (Gibco, CHO-S-SFM-II) containing 12.5 mM HEPES, 1×penicillin-streptomycin-amphotericin (SigmaMix) and soybean trypsin inhibitor (Sigma, 0.04 mg/ml).
(§4) Cell suspension, as well as the extracellular solution (130 mM NaCl, 5 mM KCl, 5.1 mM HEPES, 4.9 mM HEPES-Na, 10 mM CaCl2), 2 mM MgCl2, 10 mM glucose and 0.1% DMSO, pH=7.35-7.4) and the intracellular solution (80 mM KCl, 50 mM KF, 36 mM KOH, 10 mM EGTA, 10 mM HEPES, 1.75 mM MgCl2, 0.5 mM CaCl2), 4 mM Na2ATP. 14 mM phosphocreatine, 50 U/ml creatine-phosphokinase, 0.3 mM GTP, pH=7.25-7.3) were added to the QPatch-HTX automated patch clamp system (Sophion) in single-cell mode at room temperature. Inward currents were evoked at a holding potential of −80 mV by 3-s-long applications of the control agonist GABA at sub-maximal effective concentration (1 μM) at 2-4-min intervals first in concentration-matched DMSO (0.1 or 0.3%) control solution for five times, then in the presence of the test compound for four times, finally in control solution again for three times (wash-out). At the end of the experiment 100 μM GABA was applied to saturate the GABA-response and to assess the efficacy of the control GABA application. Current signals were low-pass filtered at 100 Hz and recorded at a sampling rate of 1 kHz.
(§5) The percentage modulation was calculated from the comparison of GAB A-evoked peak current amplitudes in the presence and absence of the test compound.

[2] = biological target: T1, human recombinant GABAA α5β3γ2 receptor (Homo sapiens (Human), UniProt P18507+P31644); test: as above; type: cell-based; details: tested at 10 μM; GABA 1 μM; HEK293 cells; percentage modulation of peak current
Method: as §1, §2, §3, §4, §5

[3] = biological target: T1, human recombinant GABAA α5β3γ2 receptor; test: Receptor binding assay, [3H]Ro151788 displacement on membranes of HEK cells; details: [3H]Ro151788 0.5 nM, HEK cell membranes, 60 minutes at 4° C.; read-out: hGABAA α5 Ki
Method: The GABAA α5β3γ2 protein used for the receptor binding assay was derived from membranes produced from HEK cells (Millipore CYL3073) expressing the human recombinant GABAA α5β3γ2 receptor. Cells were stored and cultured in-house according to the instructions provided by the vendor (Millipor). Cell pellet was homogenized in 10 times modified Krebs Henseleit buffer (membrane preparation buffer): 20 mM Tris, 120 mM NaCl, 100 mM KCl, 25 mM CaCl2 and 25 mM MgCl2 pH=7.4 at 4° C. using Ultra Turrax (Janke&Kunkel) maximal speed for 15 seconds. The homogenate was centrifuged at 40,000 g for 30 minutes at 4° C. Supernatant was discarded and the resulting pellet was washed in membrane preparation buffer. Pellet was resuspended in membrane preparation buffer and aliquots of 1.4 mL ampulles were stored at −70° C. until use.
Receptor binding assays were performed in 96-well format in deep-well plates. For each 96-well plate one ampulle of membrane homogenate was thawed and diluted in binding buffer (50 mM Tris pH=7.4, 100 mM KCl) and 200 μL was dispensed into each well. Radioligand [^3H]Rol51788 (Perkin Elmer: NET757250UC) was prepared in binding buffer and added to each well in 50 μL volume to give final concentration of 0.5 nM. Test compounds in suitable concentration(s) were added in additional 50 μL. The final assay volume was 300 μL. Incubation was carried out for 60 minutes at 4° C. For non-specific binding 10 μM unlabeled diazepam was used. […] The plate was read in Microbeta (Perkin Elmer).
The specific radioligand binding (SB) was defined as the difference between total binding (Tot) and the non-specific binding (NSB). Results are expressed as a percent inhibition of specific binding obtained in the presence of compound of interest.
For IC50 and Ki determination a minimum of six drug concentrations in triplicate were used. […] Ki values (i.e. inhibition constants) were calculated using the Cheng-Prusoff equation Ki=IC50/[1+(L/KD)], where [L] is the radioligand concentration and KD the affinity of the labelled ligand for receptor. KD was determined from the Saturation analyses.

human recombinant GABAA α1β3γ2 receptor, sequence (P14867 28-456): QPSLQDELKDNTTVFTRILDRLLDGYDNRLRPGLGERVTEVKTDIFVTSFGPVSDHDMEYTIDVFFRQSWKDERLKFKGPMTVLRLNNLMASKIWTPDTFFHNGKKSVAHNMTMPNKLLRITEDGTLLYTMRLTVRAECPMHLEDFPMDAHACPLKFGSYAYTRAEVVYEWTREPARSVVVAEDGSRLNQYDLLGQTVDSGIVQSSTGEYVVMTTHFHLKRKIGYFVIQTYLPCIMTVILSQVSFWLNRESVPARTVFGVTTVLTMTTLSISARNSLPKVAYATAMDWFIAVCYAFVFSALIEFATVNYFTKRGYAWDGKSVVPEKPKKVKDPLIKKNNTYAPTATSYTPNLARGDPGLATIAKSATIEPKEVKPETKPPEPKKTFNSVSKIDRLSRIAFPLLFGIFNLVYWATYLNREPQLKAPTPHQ
human recombinant GABAA α1β3γ2 receptor, sequence (P18507 40-475): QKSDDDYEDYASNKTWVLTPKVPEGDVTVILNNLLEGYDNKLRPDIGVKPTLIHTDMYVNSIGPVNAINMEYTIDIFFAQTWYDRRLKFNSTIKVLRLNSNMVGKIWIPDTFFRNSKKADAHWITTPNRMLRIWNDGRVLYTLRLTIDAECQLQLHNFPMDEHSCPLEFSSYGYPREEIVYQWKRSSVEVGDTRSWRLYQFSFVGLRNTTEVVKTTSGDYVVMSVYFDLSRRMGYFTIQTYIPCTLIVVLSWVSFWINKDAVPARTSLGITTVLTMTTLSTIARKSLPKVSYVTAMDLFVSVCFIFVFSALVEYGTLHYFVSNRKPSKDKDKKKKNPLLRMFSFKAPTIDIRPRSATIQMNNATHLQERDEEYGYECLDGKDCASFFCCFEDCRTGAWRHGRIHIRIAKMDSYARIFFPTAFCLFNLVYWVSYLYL
human recombinant GABAA α1β3γ2 receptor, sequence (P28472 26-473 partner): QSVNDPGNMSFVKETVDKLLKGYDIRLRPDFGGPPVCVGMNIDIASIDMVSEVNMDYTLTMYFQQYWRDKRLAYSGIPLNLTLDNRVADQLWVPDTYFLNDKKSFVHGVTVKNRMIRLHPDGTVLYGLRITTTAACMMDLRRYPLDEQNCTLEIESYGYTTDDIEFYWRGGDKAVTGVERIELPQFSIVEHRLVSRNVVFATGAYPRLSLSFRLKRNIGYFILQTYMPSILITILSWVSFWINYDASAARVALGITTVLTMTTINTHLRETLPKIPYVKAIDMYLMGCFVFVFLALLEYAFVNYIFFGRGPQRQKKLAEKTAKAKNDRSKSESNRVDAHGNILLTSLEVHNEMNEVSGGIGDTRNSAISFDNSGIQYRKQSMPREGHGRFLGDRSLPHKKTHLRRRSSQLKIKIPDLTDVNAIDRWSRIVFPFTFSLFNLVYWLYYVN
T1 sequence (P31644 32-462): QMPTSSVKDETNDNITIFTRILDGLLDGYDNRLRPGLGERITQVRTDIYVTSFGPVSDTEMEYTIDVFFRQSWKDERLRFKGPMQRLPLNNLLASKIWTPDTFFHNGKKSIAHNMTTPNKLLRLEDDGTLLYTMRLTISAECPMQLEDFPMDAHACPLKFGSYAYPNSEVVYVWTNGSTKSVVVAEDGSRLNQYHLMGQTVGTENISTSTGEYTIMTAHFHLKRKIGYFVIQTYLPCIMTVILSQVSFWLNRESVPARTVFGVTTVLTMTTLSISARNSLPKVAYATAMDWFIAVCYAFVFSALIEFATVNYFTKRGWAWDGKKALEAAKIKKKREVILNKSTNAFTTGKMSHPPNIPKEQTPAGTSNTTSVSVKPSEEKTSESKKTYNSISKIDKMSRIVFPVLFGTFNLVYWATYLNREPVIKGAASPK
T1 sequence (P18507 40-475): as the sequence (P18507 40-475) above
T1 sequence (P28472 26-473 partner): as the sequence (P28472 26-473 partner) above

hGABAA α1 efficacy [1] [%]	hGABAA α5 efficacy [2] [%]	Ki [3] [nM]	SMILES
−2	−43	10	CC(=O)N1Cc2cnc(OCc3c(C)nnn3-c3ccc(F)cc3)cc2C1 [Example 1, 1-(6-{[1-(4-fluorophenyl)-4-methyl-1H-1,2,3-triazol-5-yl]methoxy}-1,3-dihydro-2H-pyrrolo[3,4-c]pyridin-2-yl)ethanone]
−6	−47	32	CC(=O)N1Cc2cnc(OCc3c(-c4ccc(F)cc4)nnn3C)cc2C1 [Example 2, 1-(6-{[4-(4-fluorophenyl)-1-methyl-1H-1,2,3-triazol-5-yl]methoxy}-1,3-dihydro-2H-pyrrolo[3,4-c]pyridin-2-yl)ethanone]
13	−44	0.9	CC(=O)N1Cc2cnc(OCc3c(-c4ccc(F)cc4)noc3C)cc2C1 [Example 3, 1-(6-{[3-(4-fluorophenyl)-5-methyl-1,2-oxazol-4-yl]methoxy}-1,3-dihydro-2H-pyrrolo[3,4-c]pyridin-2-yl)ethanone]

From patent US20240043418A1, “1,3-DIHYDRO-2H-PYRROLO[3,4-C]PYRIDINE DERIVATIVES AS GABAA A5 RECEPTOR MODULATORS” (Richter Gedeon Nyrt., priority 2020, published 2024)
